Assay results as given in ChEMBL document CHEMBL5653628, “Selective JAK3 Inhibitors with a Covalent Reversible Binding Mode Targeting a New Induced Fit Binding Pocket” (Cell Chem Biol, 2016).

Tests used:
[1] = target: Cytoplasmic tyrosine-protein kinase BMX (Homo sapiens, UniProt P51813); experiment: Inhibition of BMX (unknown origin)
[2] = target: Epidermal growth factor receptor (Homo sapiens, UniProt P00533); experiment: Inhibition of EGFR (unknown origin)
[3] = target: Tyrosine-protein kinase Tec (Homo sapiens, UniProt P42680); experiment: Inhibition of TEC (unknown origin)
[4] = target: Tyrosine-protein kinase TXK (Homo sapiens, UniProt P42681); experiment: Inhibition of TXK (unknown origin)
[5] = target: Receptor tyrosine-protein kinase erbB-2 (Homo sapiens, UniProt P04626); experiment: Inhibition of ERB-B2 (unknown origin)
[6] = target: Tyrosine-protein kinase BTK (Homo sapiens, UniProt Q06187); experiment: Inhibition of BTK (unknown origin) by trFRET binding assay
[7] = target: Vascular endothelial growth factor receptor 2 (Homo sapiens, UniProt P35968); experiment: Inhibition of KDR (unknown origin) by trFRET binding assay
[8] = target: Tyrosine-protein kinase Fyn (Homo sapiens, UniProt P06241); experiment: Inhibition of FYN (unknown origin) by trFRET binding assay
[9] = target: Proto-oncogene tyrosine-protein kinase Src (Homo sapiens, UniProt P12931); experiment: Inhibition of SRC (unknown origin) by trFRET binding assay
[10] = target: Serine/threonine-protein kinase 16 (Homo sapiens, UniProt O75716); experiment: Inhibition of STK16 (unknown origin) by trFRET binding assay
[11] = target: T1, Tyrosine-protein kinase JAK3 (Homo sapiens, UniProt P52333); experiment: Inhibition of JAK3 (unknown origin) by trFRET binding assay
T1 sequence (P52333 whole entry): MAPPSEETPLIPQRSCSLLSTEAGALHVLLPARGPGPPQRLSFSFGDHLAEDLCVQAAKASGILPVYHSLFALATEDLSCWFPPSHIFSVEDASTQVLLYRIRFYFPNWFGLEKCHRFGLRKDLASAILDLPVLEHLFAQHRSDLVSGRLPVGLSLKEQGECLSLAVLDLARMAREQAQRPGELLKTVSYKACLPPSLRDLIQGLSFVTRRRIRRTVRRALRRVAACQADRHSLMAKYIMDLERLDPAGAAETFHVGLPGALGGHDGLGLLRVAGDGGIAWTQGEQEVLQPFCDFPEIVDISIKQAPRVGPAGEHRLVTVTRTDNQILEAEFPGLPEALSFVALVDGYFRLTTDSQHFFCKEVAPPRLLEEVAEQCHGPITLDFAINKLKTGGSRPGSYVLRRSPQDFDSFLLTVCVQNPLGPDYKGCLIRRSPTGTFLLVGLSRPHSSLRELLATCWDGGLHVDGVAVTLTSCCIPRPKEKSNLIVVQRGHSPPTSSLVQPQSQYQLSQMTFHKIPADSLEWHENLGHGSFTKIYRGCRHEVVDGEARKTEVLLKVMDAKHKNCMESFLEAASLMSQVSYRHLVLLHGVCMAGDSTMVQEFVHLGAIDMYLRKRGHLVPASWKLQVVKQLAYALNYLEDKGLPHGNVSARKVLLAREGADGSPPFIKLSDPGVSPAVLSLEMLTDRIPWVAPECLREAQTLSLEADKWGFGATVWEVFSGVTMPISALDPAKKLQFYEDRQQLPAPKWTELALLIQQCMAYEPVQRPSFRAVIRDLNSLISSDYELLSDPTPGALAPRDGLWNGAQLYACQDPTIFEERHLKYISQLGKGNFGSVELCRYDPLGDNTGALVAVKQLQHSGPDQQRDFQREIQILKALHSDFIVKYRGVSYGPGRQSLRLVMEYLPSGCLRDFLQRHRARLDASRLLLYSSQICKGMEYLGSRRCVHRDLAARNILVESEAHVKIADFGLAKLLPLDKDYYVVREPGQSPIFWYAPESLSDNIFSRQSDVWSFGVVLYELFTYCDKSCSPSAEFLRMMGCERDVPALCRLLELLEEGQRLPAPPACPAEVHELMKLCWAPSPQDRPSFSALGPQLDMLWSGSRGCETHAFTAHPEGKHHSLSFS

[12] = target: T1, Tyrosine-protein kinase JAK3
Description: Inhibition of JAK3 (unknown origin) in presence of ATP by radiometric assay

[13] = target: Vascular endothelial growth factor receptor 1 (Homo sapiens, UniProt P17948); experiment: Inhibition of FLT1 (unknown origin) by trFRET binding assay

Chain of Receptor tyrosine-protein kinase erbB-2 (P04626 whole entry): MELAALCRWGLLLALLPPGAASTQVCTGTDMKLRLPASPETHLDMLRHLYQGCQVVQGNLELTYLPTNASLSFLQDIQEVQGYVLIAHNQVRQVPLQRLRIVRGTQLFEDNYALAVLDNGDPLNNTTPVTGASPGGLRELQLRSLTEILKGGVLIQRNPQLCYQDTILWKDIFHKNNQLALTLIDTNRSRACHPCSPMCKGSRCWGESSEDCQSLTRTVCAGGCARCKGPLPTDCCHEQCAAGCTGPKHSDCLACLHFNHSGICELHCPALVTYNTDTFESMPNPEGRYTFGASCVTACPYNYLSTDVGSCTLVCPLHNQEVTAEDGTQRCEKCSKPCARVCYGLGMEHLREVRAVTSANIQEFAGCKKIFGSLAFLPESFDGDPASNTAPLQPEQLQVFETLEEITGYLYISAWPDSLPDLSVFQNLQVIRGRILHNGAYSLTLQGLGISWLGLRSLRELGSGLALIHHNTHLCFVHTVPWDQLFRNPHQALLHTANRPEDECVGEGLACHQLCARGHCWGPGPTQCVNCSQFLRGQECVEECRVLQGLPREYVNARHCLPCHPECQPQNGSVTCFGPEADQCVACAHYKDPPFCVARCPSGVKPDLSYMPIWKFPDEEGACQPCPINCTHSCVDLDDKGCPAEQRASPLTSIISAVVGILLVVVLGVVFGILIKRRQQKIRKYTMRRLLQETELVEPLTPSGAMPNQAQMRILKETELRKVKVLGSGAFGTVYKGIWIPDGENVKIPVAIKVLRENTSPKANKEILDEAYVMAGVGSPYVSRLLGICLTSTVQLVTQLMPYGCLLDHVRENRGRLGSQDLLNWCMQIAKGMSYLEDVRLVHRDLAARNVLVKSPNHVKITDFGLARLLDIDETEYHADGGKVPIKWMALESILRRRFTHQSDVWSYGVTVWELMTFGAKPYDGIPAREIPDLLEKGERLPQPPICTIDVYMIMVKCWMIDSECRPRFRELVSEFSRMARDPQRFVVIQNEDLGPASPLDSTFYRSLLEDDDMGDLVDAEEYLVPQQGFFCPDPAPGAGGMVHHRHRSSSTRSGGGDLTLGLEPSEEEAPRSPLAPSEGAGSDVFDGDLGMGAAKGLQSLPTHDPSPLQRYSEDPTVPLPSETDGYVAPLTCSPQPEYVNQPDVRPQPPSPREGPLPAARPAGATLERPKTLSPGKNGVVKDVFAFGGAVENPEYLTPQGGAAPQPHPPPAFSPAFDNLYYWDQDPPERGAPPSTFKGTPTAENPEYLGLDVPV
Chain of Tyrosine-protein kinase Fyn (P06241 whole entry): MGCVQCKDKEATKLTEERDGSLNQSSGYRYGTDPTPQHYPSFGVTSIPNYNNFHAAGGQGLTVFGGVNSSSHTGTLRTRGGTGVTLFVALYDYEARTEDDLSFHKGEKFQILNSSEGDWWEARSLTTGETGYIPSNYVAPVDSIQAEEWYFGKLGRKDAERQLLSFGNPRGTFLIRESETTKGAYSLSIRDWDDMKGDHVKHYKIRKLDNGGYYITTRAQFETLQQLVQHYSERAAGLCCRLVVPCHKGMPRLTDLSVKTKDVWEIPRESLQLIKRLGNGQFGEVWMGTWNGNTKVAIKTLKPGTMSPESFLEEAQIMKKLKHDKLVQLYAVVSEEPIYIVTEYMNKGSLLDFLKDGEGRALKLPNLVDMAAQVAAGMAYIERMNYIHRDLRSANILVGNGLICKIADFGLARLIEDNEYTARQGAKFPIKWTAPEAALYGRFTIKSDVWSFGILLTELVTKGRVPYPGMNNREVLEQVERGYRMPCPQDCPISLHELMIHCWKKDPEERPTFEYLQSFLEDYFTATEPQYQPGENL
Chain of Tyrosine-protein kinase BTK (Q06187 whole entry): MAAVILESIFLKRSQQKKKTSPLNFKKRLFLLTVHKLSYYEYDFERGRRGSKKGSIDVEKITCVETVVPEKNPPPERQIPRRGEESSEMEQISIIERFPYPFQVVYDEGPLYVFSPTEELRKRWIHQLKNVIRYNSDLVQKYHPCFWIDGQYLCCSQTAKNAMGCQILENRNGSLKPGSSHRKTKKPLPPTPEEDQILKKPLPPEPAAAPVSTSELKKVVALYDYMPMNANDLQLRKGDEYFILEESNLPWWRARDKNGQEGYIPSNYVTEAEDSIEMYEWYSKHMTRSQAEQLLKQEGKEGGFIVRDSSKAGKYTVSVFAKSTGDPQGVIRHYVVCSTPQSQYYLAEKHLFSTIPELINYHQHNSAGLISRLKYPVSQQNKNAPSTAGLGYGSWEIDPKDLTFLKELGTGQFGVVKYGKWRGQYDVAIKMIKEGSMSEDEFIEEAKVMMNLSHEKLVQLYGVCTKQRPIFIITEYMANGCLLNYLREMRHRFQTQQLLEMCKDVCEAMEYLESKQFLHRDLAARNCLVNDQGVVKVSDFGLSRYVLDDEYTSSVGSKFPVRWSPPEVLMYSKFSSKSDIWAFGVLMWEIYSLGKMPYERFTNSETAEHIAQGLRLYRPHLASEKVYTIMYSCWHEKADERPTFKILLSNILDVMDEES
Chain of Epidermal growth factor receptor (P00533 whole entry): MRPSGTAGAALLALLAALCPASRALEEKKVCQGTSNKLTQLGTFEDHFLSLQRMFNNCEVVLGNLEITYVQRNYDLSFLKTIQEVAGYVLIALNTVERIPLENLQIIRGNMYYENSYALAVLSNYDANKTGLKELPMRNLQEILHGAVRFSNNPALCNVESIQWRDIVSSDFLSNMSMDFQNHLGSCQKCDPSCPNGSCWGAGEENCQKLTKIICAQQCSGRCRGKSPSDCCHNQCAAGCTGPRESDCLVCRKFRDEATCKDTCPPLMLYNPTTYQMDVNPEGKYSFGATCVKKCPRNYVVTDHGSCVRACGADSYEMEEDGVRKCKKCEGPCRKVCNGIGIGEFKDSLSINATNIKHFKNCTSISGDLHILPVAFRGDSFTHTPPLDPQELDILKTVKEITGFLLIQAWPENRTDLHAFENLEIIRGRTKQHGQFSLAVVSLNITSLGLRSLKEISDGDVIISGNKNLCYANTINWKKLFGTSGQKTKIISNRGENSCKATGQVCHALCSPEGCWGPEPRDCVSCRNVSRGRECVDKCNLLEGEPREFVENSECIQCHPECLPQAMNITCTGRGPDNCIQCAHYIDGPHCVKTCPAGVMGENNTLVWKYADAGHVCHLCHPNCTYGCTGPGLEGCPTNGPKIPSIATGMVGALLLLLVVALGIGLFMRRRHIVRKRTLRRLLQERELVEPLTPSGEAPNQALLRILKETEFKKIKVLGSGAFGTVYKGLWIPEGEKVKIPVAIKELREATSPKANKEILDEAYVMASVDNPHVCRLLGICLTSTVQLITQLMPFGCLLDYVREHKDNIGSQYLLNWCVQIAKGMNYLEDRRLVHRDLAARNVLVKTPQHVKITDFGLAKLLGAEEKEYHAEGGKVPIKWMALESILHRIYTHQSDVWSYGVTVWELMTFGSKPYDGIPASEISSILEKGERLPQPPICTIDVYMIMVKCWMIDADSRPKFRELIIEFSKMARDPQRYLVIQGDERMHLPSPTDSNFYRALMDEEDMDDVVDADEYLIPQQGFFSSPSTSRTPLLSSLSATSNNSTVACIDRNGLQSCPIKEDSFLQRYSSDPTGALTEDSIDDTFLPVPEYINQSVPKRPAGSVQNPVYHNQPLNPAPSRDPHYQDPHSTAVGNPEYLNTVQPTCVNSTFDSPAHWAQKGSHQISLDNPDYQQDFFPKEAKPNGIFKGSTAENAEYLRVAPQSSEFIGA
Chain of Serine/threonine-protein kinase 16 (O75716 whole entry): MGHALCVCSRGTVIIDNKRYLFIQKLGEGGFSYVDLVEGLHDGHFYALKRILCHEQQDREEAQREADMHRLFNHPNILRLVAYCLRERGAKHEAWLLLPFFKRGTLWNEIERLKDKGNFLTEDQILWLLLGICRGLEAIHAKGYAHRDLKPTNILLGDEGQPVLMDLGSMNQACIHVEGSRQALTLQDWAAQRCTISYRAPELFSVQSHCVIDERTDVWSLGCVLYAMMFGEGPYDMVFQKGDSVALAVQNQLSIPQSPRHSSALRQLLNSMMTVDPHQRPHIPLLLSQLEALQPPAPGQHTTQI
Chain of Cytoplasmic tyrosine-protein kinase BMX (P51813 whole entry): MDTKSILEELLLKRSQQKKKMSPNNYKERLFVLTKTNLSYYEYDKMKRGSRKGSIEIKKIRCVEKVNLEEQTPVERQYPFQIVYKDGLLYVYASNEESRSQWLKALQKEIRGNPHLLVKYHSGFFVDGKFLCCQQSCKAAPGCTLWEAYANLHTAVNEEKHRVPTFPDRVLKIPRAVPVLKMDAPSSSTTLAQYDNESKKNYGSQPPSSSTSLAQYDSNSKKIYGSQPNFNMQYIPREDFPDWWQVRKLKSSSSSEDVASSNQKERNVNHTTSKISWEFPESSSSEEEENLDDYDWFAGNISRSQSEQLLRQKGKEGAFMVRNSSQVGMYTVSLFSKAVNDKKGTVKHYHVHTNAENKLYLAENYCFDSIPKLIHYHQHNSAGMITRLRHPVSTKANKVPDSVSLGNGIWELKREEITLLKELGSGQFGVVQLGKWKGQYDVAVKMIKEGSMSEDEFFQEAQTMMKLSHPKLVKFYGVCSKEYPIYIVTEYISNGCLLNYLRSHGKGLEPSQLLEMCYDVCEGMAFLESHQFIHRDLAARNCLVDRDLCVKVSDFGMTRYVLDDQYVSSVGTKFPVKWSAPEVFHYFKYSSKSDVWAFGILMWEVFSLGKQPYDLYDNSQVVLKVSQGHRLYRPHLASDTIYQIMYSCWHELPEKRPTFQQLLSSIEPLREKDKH

Compound | IC50 [1] [nM] | IC50 [2] [nM] | IC50 [3] [nM] | IC50 [4] [nM] | IC50 [5] [nM] | IC50 [6] [nM] | IC50 [7] [nM] | IC50 [8] [nM] | IC50 [9] [nM] | IC50 [10] [nM] | IC50 [11] [nM] | IC50 [12] [nM] | IC50 [13] [nM]
N#C/C(=C\c1cccc(-c2cccc3[nH]ncc23)c1)C(N)=O | 2410 | > 10000 | 6930 | 1670 | 2050 |  |  |  |  |  |  |  | 
C=CC(=O)Nc1ccc2ncn(-c3cncc(Nc4ccccc4)n3)c2c1 |  |  |  |  |  | 640 | 550 | 660 | 980 | 1000 | 300 | 20 | 550
